Results reported in patent publication US9877966B1, “Combination therapy for the inhibition of metastasis and tumorigenesis” (priority 2015, dated 2018).

How the values were obtained:
Assay type in all cases: cell-based, human
[1] = tested on: PNC prevalence in PC3M cell line stably expressing GFP-PTB; assay: High content assay for PNC detection (reduction of PNC prevalence); conditions: Table 4; PC3M GFP-PTB cells, 16 hrs
Source text: The quantitative output for this assay is the reduction of PNC prevalence. The PNC can be detected in living cells by the expression of a green fluorescent protein (GFP) tagged to the PNC localized protein, PTB. A PC3M cell line was used that stably expresses GFP-PTB to mark PNCs. This method eliminates the need for immunofluorescent staining.
The IN Cell Analyzer 1000 automated fluorescent imaging system (GE Healthcare, Piscataway, N.J.) was used for automated image acquisition. […] The instrument acquired images of each well in a 1536-well plate with a laser-based autofocus system. To score PNC prevalence in a high-content throughput, the Multi-Target Analysis (MTA) algorithm (GE Healthcare, Investigator v3.5) to identify individual cells and granules (PNCs) within these cells was used. The nucleus was segmented via a region growing method (50 μm^2 minimum area) with light shading and noise removal to allow “touching” nuclei to be separated. […] For this particular assay, PNC-positive cells were scored when 1 to 3 PNC granules were detected per nucleus. Cells that contained 0 granules were scored as PNC negative, and cells with >3 granules were assumed to be false positives (very few cells have more than 3 PNCs in one focus plane), and were also scored as PNC negative.

[2] = tested on: PC3M reporter cell line stably expressing PTB-GFP (ATP levels); assay: ATP quantitation assay (ATPLite); conditions: Table 4, PC3M cells, 24 hrs
Procedure: This follow-up assay was conducted to measure the effect of compounds on cell health by measuring ATP levels (ATPLite™). ATPLite™ is an ATP monitoring system based on firefly (Photinus pyralis) luciferase. The level of ATP in a metabolically active cell is a general marker for its viability. ATP levels are often reduced during necrosis or apoptosis. In this assay, the luciferase enzyme catalyzes the conversion of the added substrate D-luciferin to oxyluciferin and light with ATP. Thus, the emitted light is proportional to the ATP concentration. For this assay, the highly metastatic PC3M reporter cell line stably expressing the PTB-GFP was provided by Professor Sui Huang of Northwestern University. The media and cell culture reagents were purchased from Invitrogen (Carlsbad, Calif.), ATPLite™ came from PerkinElmer.

PC3M cells = assay: Soft agar colony formation assay (anchorage independent growth)
Procedure: Compound 2 was tested for its ability to affect anchorage independent growth in a soft agar assay, a stringent method to detect malignant transformation of cells in vitro.

COC(=O)C[C@H](C(=O)OC)n1ncc2c(c(-c3ccccc3)cn2Cc2ccc(Br)cc2)c1=N [Compound 114]
PNC IC50 [1]: inactive
ATP IC50 [2]: inactive

N=c1c2c(-c3ccccc3)c(-c3ccccc3)n(Cc3ccccc3)c2ncn1[C@H]1CC[C@H](O)CC1 [Compound 2, trans-4-(7-Benzyl-4-imino-5,6-diphenyl-4,7-dihydro-3H-pyrrolo[2,3-d]pyrimidin-3-yl)cyclohexanol]
cell viability (PC3M cells; soft agar assay, 3.8, 18.6 nM): no impact on cell viability
number of colonies (anchorage independent growth) (PC3M cells; soft agar, after 14 days, 3.8, 18.6 nM): dose dependent reduction in the number of colonies
